Measurements: article PMC10536189 (Microorganisms, 2023)
Entries after “also recorded” stand apart in the source; their conditions may differ.

Test system: multidrug-resistant (MDR) Mycobacterium tuberculosis
Assay type: cell-based
Conditions: Peptide 14D at 1 µg/mL; low inoculum

wkivfwwrr-CONH2 [Peptide 14D]
Effect on growth of multidrug-resistant MTB: reducing the lag time before growth starts; also recorded: increased growth
